For orientation: inhibition means the drop in the measured response relative to a control, in per cent. A high value points to a strong effect.

The target of test [1] is T1, phenylethanolamine N-methyltransferase (Oryctolagus cuniculus, UniProt G1TT82).
T1 construct: from tissue
T1 sequence (G1TT82 1-286): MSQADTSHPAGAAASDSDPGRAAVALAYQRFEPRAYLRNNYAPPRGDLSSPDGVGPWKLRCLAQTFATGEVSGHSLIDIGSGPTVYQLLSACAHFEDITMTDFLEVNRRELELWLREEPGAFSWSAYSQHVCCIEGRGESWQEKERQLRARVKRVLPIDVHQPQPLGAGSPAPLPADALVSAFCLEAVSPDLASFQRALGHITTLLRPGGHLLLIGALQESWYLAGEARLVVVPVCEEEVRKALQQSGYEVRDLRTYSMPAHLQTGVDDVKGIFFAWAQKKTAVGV
Nature of the test: In vitro inhibition of phenylethanolamine N-methyltransferase (Pendleton and Snow procedure). Particulars: for In Vitro Inhibition % at 10^-4: compound concentration 10^-4; for inhibition at 1 µM: compound concentration 10^-6M. Type of test: biochemical. The text has this:
For example, following are in vitro results obtained from testing several compounds present in the pharmaceutical compositions and methods of this invention.

Test [2] concerns PNMT. Nature of the test: In vivo conversion of 3H-norepinephrine into 3H-epinephrine in rat adrenals after oral dosing (PNMT inhibition). Particulars: rats, 50 mg./kg. three times over 24 hours, tracer 3H-norepinephrine i.v. (tail vein) one hour after last dose, adrenals assayed 45 min later, active if p<0.05. The source says: One hour after the last dose the rats are given a tracer dose of ^3 H-norepinephrine into a tail vein. Forty-five minutes later they are sacrificed by decapitation and the adrenals assayed for ^3 H-epinephrine and ^3 H-norepinephrine.

On to `NC1Cc2ccc(Br)cc2C1` (stereo not shown) [compound 85347], for which, in test [1], the “In Vitro Inhibition % at 10^-4” value was 96% and the inhibition at 1 µM was 33%. In the case of `NC1Cc2ccc([N+](=O)[O-])cc2C1` (stereo not shown) [compound 85391], in test [1], the “In Vitro Inhibition % at 10^-4” value is 96% and testing at 1 µM gave an inhibition of 23%. Consider `NC1Cc2ccc(S(N)(=O)=O)cc2C1` (stereo not shown) [5-sulfamoyl-2-aminoindane, 5-sulfamyl-2-indanamine], for which the “inhibition of the conversion of radioactive norepinephrine into epinephrine” value in test [2] is on record as “significantly inhibited this conversion (p<0.01)”. On to `NC1Cc2ccc(Cl)cc2C1` (stereo not shown) [compound 85506], for which, in test [1], the “In Vitro Inhibition % at 10^-4” value is recorded as 96% and testing at 1 µM gave an inhibition of 37%.

(Values after patent US4192888A, “Pharmaceutical compositions and method of inhibiting phenylethanolamine N-methyltransferase” (SmithKline Corporation, priority 1978, dated 1980).)
